{"source": "paper PMC5580309", "about": "“Molecular-scale features that govern the effects of O-glycosylation on a carbohydrate-binding module” (Chemical Science, 2015)", "target": "T1, thermolysin (Bacillus thermoproteolyticus, UniProt P00800)", "T1 sequence (P00800 233-548)": "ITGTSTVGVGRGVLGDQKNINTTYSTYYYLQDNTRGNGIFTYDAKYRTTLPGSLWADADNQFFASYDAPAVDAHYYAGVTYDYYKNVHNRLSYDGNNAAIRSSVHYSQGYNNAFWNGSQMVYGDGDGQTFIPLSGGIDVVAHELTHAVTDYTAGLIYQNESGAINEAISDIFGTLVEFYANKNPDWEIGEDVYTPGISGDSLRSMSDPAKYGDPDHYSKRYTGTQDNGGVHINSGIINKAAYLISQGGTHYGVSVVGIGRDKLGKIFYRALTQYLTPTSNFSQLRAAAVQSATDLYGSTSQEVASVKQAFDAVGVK", "test": "Proteolytic stability: half-life to thermolysin degradation", "format": "in vitro ADME", "details": "for Change in Half-Life to Thermolysin Degradation: glyco-variant minus its corresponding unglycosylated CBM (e.g. 2-1), *** not used in the correlation plot; for half-life: thermolysin (isolated protease), thermolysin degradation, mean of three trials ± SD, procedures as described previously (ESI ref 18)", "procedure": "All error bars reported are standard deviations of data achieved from three separate trials.\ncellulose that were determined in accordance with our procedures as described previously 18.\nThe results are presented as mean of three trials ± SD. *Denotes an averaged value of four trials", "note": "Bridge positions count the residues as written; N and C are the ends. Peptide text beside a SMILES is read from it. * marks the point of attachment. X5 = O=P(O)(O)OC[C@H]1O[C@H](*)[C@@H](O)[C@@H](O)[C@@H]1O; X3 = CC(=O)N[C@@H]1[C@@H](O)[C@H](O)[C@@H](CO)O[C@@H]1*; X7 = CC(=O)N[C@H]1[C@@H](O)[C@H](O)[C@@H](CO)O[C@@H]1*", "data": [{"smiles": "CC[C@H](C)[C@@H]1NC(=O)CNC(=O)CNC(=O)[C@@H](NC(=O)[C@H](CCC(N)=O)NC(=O)CNC(=O)[C@H](Cc2ccc(O)cc2)NC(=O)[C@H](Cc2c[nH]cn2)NC(=O)[C@H](CO[C@H]2O[C@H](COP(=O)(O)O)[C@@H](O)[C@H](O)[C@@H]2O)NC(=O)[C@H](CCC(N)=O)NC(=O)[C@@H](N)[C@@H](C)O)CSSC[C@@H]2NC(=O)[C@H]([C@@H](C)O)NC(=O)[C@H]([C@@H](C)O)NC(=O)CNC(=O)[C@H](CO)NC(=O)[C@H](C)NC(=O)[C@H](CSSC[C@@H](C(=O)N[C@@H](CC(C)C)C(=O)O)NC(=O)[C@H](CCC(N)=O)NC(=O)[C@H](CO)NC(=O)[C@H](Cc3ccc(O)cc3)NC(=O)[C@H](Cc3ccc(O)cc3)NC(=O)[C@@H]3CCCN3C(=O)[C@H](CC(N)=O)NC(=O)[C@H](CC(C)C)NC(=O)[C@H](C(C)C)NC(=O)[C@H](CCC(N)=O)NC2=O)NC(=O)[C@H](C(C)C)NC(=O)[C@H]([C@@H](C)O)NC(=O)[C@@H]2CCCN2C(=O)CNC(=O)[C@H](CO)NC(=O)[C@H](Cc2ccc(O)cc2)NC(=O)CNC1=O", "note": "[CBM variant 20] (H-TQS(X5)HYGQCGGIGYSGPTVCASGTTCQVLNPYYSQCL-OH; disulfide 8-25, 19-35)", "values": [{"measurement": "Change in Half-Life to Thermolysin Degradation", "result": 20.4, "unit": "min"}, {"measurement": "half-life", "result": "34.2 ± 3.6", "unit": "min"}]}, {"smiles": "CC[C@H](C)[C@@H]1NC(=O)CNC(=O)CNC(=O)[C@@H](NC(=O)[C@H](CCC(N)=O)NC(=O)CNC(=O)[C@H](Cc2ccc(O)cc2)NC(=O)[C@H](Cc2c[nH]cn2)NC(=O)[C@H](CO[C@H]2O[C@H](CO)[C@@H](O)[C@H](O)[C@@H]2NC(C)=O)NC(=O)[C@H](CCC(N)=O)NC(=O)[C@@H](N)[C@@H](C)O)CSSC[C@@H]2NC(=O)[C@H]([C@@H](C)O)NC(=O)[C@H]([C@@H](C)O)NC(=O)CNC(=O)[C@H](CO)NC(=O)[C@H](C)NC(=O)[C@H](CSSC[C@@H](C(=O)N[C@@H](CC(C)C)C(=O)O)NC(=O)[C@H](CCC(N)=O)NC(=O)[C@H](CO)NC(=O)[C@H](Cc3ccc(O)cc3)NC(=O)[C@H](Cc3ccc(O)cc3)NC(=O)[C@@H]3CCCN3C(=O)[C@H](CC(N)=O)NC(=O)[C@H](CC(C)C)NC(=O)[C@H](C(C)C)NC(=O)[C@H](CCC(N)=O)NC2=O)NC(=O)[C@H](C(C)C)NC(=O)[C@H]([C@@H](C)O)NC(=O)[C@@H]2CCCN2C(=O)CNC(=O)[C@H](CO)NC(=O)[C@H](Cc2ccc(O)cc2)NC(=O)CNC1=O", "note": "[CBM variant 21] (H-TQS(X7)HYGQCGGIGYSGPTVCASGTTCQVLNPYYSQCL-OH; disulfide 8-25, 19-35)", "values": [{"measurement": "Change in Half-Life to Thermolysin Degradation", "result": 27.6, "unit": "min"}, {"measurement": "half-life", "result": "41.4 ± 5.4", "unit": "min"}]}, {"smiles": "CC[C@H](C)[C@@H]1NC(=O)CNC(=O)CNC(=O)[C@@H](NC(=O)[C@H](CCC(N)=O)NC(=O)CNC(=O)[C@H](Cc2ccc(O)cc2)NC(=O)[C@H](Cc2c[nH]cn2)NC(=O)[C@H](CO[C@H]2O[C@H](CO)[C@@H](O)[C@H](O)[C@H]2NC(C)=O)NC(=O)[C@H](CCC(N)=O)NC(=O)[C@@H](N)[C@@H](C)O)CSSC[C@@H]2NC(=O)[C@H]([C@@H](C)O)NC(=O)[C@H]([C@@H](C)O)NC(=O)CNC(=O)[C@H](CO)NC(=O)[C@H](C)NC(=O)[C@H](CSSC[C@@H](C(=O)N[C@@H](CC(C)C)C(=O)O)NC(=O)[C@H](CCC(N)=O)NC(=O)[C@H](CO)NC(=O)[C@H](Cc3ccc(O)cc3)NC(=O)[C@H](Cc3ccc(O)cc3)NC(=O)[C@@H]3CCCN3C(=O)[C@H](CC(N)=O)NC(=O)[C@H](CC(C)C)NC(=O)[C@H](C(C)C)NC(=O)[C@H](CCC(N)=O)NC2=O)NC(=O)[C@H](C(C)C)NC(=O)[C@H]([C@@H](C)O)NC(=O)[C@@H]2CCCN2C(=O)CNC(=O)[C@H](CO)NC(=O)[C@H](Cc2ccc(O)cc2)NC(=O)CNC1=O", "note": "[CBM variant 22] (H-TQS(X3)HYGQCGGIGYSGPTVCASGTTCQVLNPYYSQCL-OH; disulfide 8-25, 19-35)", "values": [{"measurement": "Change in Half-Life to Thermolysin Degradation", "result": 10.2, "unit": "min"}, {"measurement": "half-life", "result": "24 ± 0.6", "unit": "min"}]}]}
